Assay results taken from patent publication US8420865B2, “Phosphine compound, process for producing the same, and peroxide scavenger using the same” (Fukuoka University, priority 2008, dated 2013).

Experiments:
[1] = Oxidation of MitoDPPP with hydrogen peroxide in dimethylsulfoxide solution, fluorescence intensity over time; settings: MitoDPPP 16 μM in dimethylsulfoxide, 10 mM H2O2, 10 minutes, FIG. 1
Protocol: The time scale changes in fluorescence intensity were monitored for the oxidation with hydrogen peroxide of [3-(4-Phenoxyphenylphosphinopyrenylphosphino)propyl]triphenylphosphonium iodide [Ia] (MitoDPPP) obtained in EXAMPLE 1.
After 10 mM H2O2 was added dropwise to a dimethylsulfoxide solution of MitoDPPP (16 μM), fluorescence intensities at the fluorescence wavelength of 380 nm were measured for 10 minutes.

HepG2 cells [2] = assay: Loading into HepG2 cells and oxidation stimulated with tert-butoxyhydroperoxide (tBHP), fluorescence microscopy; assay type: cell-based; settings: MitoDPPP 16 μM loaded 2 minutes, ten minutes after tBHP, FIG. 3
Protocol: Loading of MitoDPPP into HepG2 cells and oxidation stimulated with tert-butoxyhydroperoxide (tBHP) were monitored. A 0.1% dimethylsulfoxide solution of MitoDPPP (16 μM) was prepared. The solution was loaded into HepG2 cells for 2 minutes to stain the cells. The cells were washed with PBS and observed under a fluorescence microscope. Next, tert-butoxyhydroperoxide (tBHP) was added to the cells. Ten minutes later, the cells were observed under the fluorescence microscope.

HepG2 cells [3] = assay: Loading of MitoDPPP into HepG2 cells, fluorescence microscopy, comparison with Mito Tracker Green FM; assay type: cell-based; settings: fluorescence microscope, comparison/double-staining with mitochondria-selective fluorescent dye, FIG. 2
Protocol: Loading of MitoDPPP into HepG2 cells was examined. A 20% dimethylsulfoxide solution of MitoDPPP (16 μM) was prepared and the solution was loaded into HepG2 cells for 10 minutes to stain the cells. After washing with PBS, the cells were observed under a fluorescence microscope.

[4] = Oxidation of MitoDPPP in an aqueous solution with hydrogen peroxide and tBHP; settings: FIG. 4
HepG2 cells [5] = assay: Oxidation of MitoDPPP loaded into HepG2 cells, hydrogen peroxide compared with tBHP, microplate reader; assay type: cell-based; settings: MitoDPPP 16 μM loaded 10 minutes, FIG. 4
Protocol: The oxidation of MitoDPPP loaded into HepG2 cells was compared for hydrogen peroxide and tBHP. A 0.1% dimethylsulfoxide solution of MitoDPPP (16 μM) was prepared. The solution was loaded into HepG2 cells for 10 minutes. After washing the cells with PBS, hydrogen peroxide was added to the cells and the increase in fluorescence intensity was monitored on a microplate reader.

[I-].c1ccc(Oc2ccc(P(CCC[P+](c3ccccc3)(c3ccccc3)c3ccccc3)c3ccc4ccc5cccc6ccc3c4c56)cc2)cc1 (stereo not drawn) [MitoDPPP]
fluorescence intensity at the fluorescence wavelength of 380 nm on oxidation with hydrogen peroxide [1]: increase in the fluorescence intensity | brightness of stained cells after tBHP loading compared to before (HepG2 cells [2]): increased | localization in cells (HepG2 cells [3]): localized in mitochondria | oxidation with hydrogen peroxide in an aqueous solution ([4]; hydrogen peroxide): proceeds rapidly | oxidation with tBHP in an aqueous solution ([4]; tBHP): proceeds rapidly | oxidation with hydrogen peroxide of MitoDPPP loaded into HepG2 cells (HepG2 cells [5]): not oxidized
